# Measured values published in US20080318892A1, “METHODS AND FORMULATIONS FOR PROTECTING CELLS, AND FOR TREATING DISEASES AND CONDITIONS BY OPTIMIZING THE INTRACELLULAR CONCENTRATION OF NAD” (priority 2007, published 2008).
# Legend:
# [1] = tested on: PBEF; test: Knockdown of PBEF by RNA interference: PBEF mRNA (real-time RT-PCR) and protein (Western blot); type: cell-based, human; conditions: HITC6 SMCs, retroviral hairpin siRNA
# Description: (§1) Western Blot Analyses were employed to assay marker expression. Expression of PBEF and SMC differentiation markers was assessed by Western blot analysis with chemiluminescence detection, as described (29). Equal amounts of protein were resolved on 12% (for PBEF and α-tubulin), 9% (for smoothelin A and smoothelin B) and 6% (for caldesmon and vinculin-metavinculin) SDS-polyacrylamide gels and transferred PVDF membranes (Immobilon, Millipore). PBEF was detected using a polyclonal rabbit antibody against human PBEF (1857, 1:5000, kindly provided by Amgen). Monoclonal antibodies were used to detect heavy (h)-caldesmon (clone hHCD, 1:1000, Sigma), smoothelin isoforms A and B (clone MAB3242, 1:500, Chemicon), vinculin-metavinculin (clone VIN-11-5, 1:2000, Sigma), and α-tubulin (clone B-5-1-2; 1:16000, Sigma).
# (§2) Knockdown of PBEF by RNA Interference was evaluated with a viral vector. PBEF knockdown was accomplished by infecting human SMC's with retrovirus containing sequences encoding hairpin siRNA fragments. Complementary oligodeoxynucleotides were synthesized, annealed, and inserted between the BamH1 and EcoR1 sites of the retroviral expression vector pSIREN-RetroQ. Three different targeting sequences were used, each consisting of 19 nucleotides starting at nucleotides 147, 384, and […] of the PBEF coding sequence (siRNA147 5′-GGAAGGTGAAATATGAGGA-3′; siRNA384 5′-ATGTTCTCTTCACGGTGGA-3′; siRNA1278 5′-AGGGCCGATTATCTTTACA-3′). Each sequence was separated by a 9-nucleotide noncomplementary spacer from the reverse complement of the same 19-nucleotide sequence. Blast search confirmed that only the PBEF gene was targeted. Control inserts contained the gene-specific 19-nucleotide sequence and hairpin loop sequence but not the antisense component. Infection of SMCs was performed as described above and cells were selected using 3 μg/ml puromycin for 48 hours.
# Real-time RT-PCR was used to analyze nucleic acid evidence. RNA was harvested using RNeasy mini-column and reagents (Qiagen) and subjected to DNaseI treatment. Probe (5′-CAGTTGCTGATCCCA-3′) and flanking primers (5′-primer 5′-[…]-3′; 3′-primer 5′-[…]-3′) for Taqman real-time RT-PCR for PBEF were designed using Primer Express software (Applied Biosystems). Reactions were performed using an ABI-Prism 7900 Sequence Detection System (Applied Biosystems). Optimum signal was obtained with concentrations of 200 nM, 300 nM and 50 nM for the probe, 5′ primer, and 3′ primer, respectively. Standard curves were generated using RNA derived from human aortic SMCs, enabling correlation of the determined threshold cycle to transcript abundance. GAPDH transcript abundance was used as an endogenous RNA control (Assays on Demand Hs9999905, Applied Biosystems) to which PBEF transcript abundance was normalized.
# [2] = tested on: HITC6 SMC's; test: Survival, morphology and h-caldesmon expression of PBEF-knockdown SMCs; type: cell-based, human; conditions: for SMC morphology / SMC survival: retroviral hairpin siRNA
# Description: as §1, §2
# Microscopy and Image Analysis were used to measure cell robustness and function. Cell images were collected using a Zeiss Axiovert S100 microscope (Carl Zeiss Microimaging Inc.) equipped with Hoffman Modulation Contrast Plan objectives and TCT condenser (Modulation Optics Inc.), cooled QICAM 12-bit Mono Fast 1394 camera (QImaging Inc.) and Northern Eclipse image analysis software (Empix Imaging Inc.). Histology images were acquired with an Olympus BX50 microscope with a BX-FLA illuminator, UPlanF1 objective lenses (Olympus Optical Co. Ltd.), cooled Retiga EXi Mono Fast 1394 camera (QImaging Inc.) and Northern Eclipse image analysis software. Linear image processing was done using Photoshop CS (Adobe Systems Inc.).
# [3] = tested on: HDAC; test: Histone deacetylase (HDAC) assay in SMC lysates with [3H]-acetylated histone H4 peptide; type: biochemical, human
# Description: HITC6 SMC's were stably transduced with pQXCIP-PURO or pQXCIP-PBEF-PURO and HDAC activity determined in cell lysates (25 μg of protein), using [^3H]histone H4 peptide as the substrate. The reactions were quenched by acid hydrolysis and catalytically released [^3H]-acetate was extracted in ethyl acetate.
# Histone Deacetylase (HDAC) Assays were employed. Histone H4 peptide (Upstate) was labeled with [^3H]-acetyl Coenzyme A (ICN) using PCAF histone acetylase. Cell lysates were harvested using Passive Lysis Buffer (Promega) and 25 μg of protein was incubated at 37° C. for 6 hours with 50,000 cpm of [^3H]-acetyl histone and 1 mM PMSF in HDAC Assay Buffer (Upstate). Released [^3H]-acetate was extracted with ethyl acetate (31) and counted on a Beckman LS3801 scintillation counter.
# [4] = tested on: HITC6 SMCs; test: Senescence-associated beta-galactosidase activity / senescence-free survival; type: cell-based, human; conditions: 37th subculture
# Description: Senescence-associated β-Galatosidase Activity Assay. SMCs on glass coverslips at approximately 70% confluence were fixed in 2% formaldehyde/0.2% glutaraldehyde in PBS for 3 minutes and incubated with X-gal-containing reaction mixture, as previously described (Dimri, 1995). Washed cells were stained with Hoechst 33258 (2.5 μg/ml) and the proportion of senescence-associated β-galactosidase (SA β-Gal)-positive cells quantified from 10 microscope fields of view (Olympus BX51, ×20 objective, approximately 1200 cells). Senescence-free survival was determined using Kaplan-Meier analysis of survival vs. replicative age.
# Senescence-associated Beta-galactosidase Activity. Senescence-associated beta-galactosidase (SA-β-gal) activity was determined as previously described (Dimri et al, 1995). Briefly, SMCs were fixed in PBS containing 2% formaldehyde/0.2% glutaraldehyde for 3 min at room temperature. Fixed cells were then incubated for 4-6 h at 37° C. with SA-β-gal stain solution containing 150 mM NaCl, 2 mM MgCl, 40 mM citrate, 5 mM potassium ferrocyanide, 5 mM potassium ferricyanide, and 1 mg/ml of 5-bromo-4-chloro-3-indolyl-β-D-galactopyranoside (X-gal) (Invitrogen, Carlsbad, Calif., USA), at pH 6.0. SMCs were counterstained with 2.5 μg/ml Hoechst 33258 to detect cell nuclei. The proportion of SA-β-gal activity positive cells was quantified using light and fluorescence microscopy (Olympus BX51, Center Valley, Pa., USA).
# [5] = tested on: HITC6 SMCs; test: Replicative lifespan (cumulative population doublings) of HITC6 SMCs; type: cell-based, human
# Description: To quantify replication, cells were plated at 4500 cells/cm^2 and growth medium with 10% FBS was changed every two days until cells reached 90-95% confluence. Harvested cells were counted from triplicate plates and the number of population doublings was calculated based on: [log10(number of cells harvested)−log10(number of cells seeded)]/[…] (Fukuhara, 2005). Population growth curves were compared using both nonlinear regression and two-way analysis of variance.
# Cell Culture. Experiments were performed using primary human SMCs and the HITC6 clonal SMC line, both derived from segments of human internal thoracic artery (Li et al., 1999; Li et al., 2001). SMCs were maintained at 37° C. with 5% CO2 and cultured in Medium 199 (Invitrogen, Carlsbad, Calif., USA) supplemented with 25 mM HEPES, 10% FBS, 1% penicillin/streptomycin, and 1% L-glutamine. Phoenix cells (distributed by ATCC, Manassas, Va., USA) were maintained at 37° C. with 5% CO2 and cultured in Dulbecco's modified Eagle's medium (Invitrogen, Carlsbad, Calif., USA). To quantify replication, cells were seeded at a density of 4500 cells/cm2 and population doublings were calculated using the following formula: […].
# [6] = tested on: primary human vascular SMCs; test: Replicative lifespan (cumulative population doublings) of primary SMCs; type: cell-based; conditions: SIRT1-overexpressing primary adult SMCs; p<0.01
molecule,measurement,setting,value
"siRNA384: retrovirally expressed hairpin siRNA to PBEF, 19 nt from nucleotide 384: 5'-ATGTTCTCTTCACGGTGGA-3' (hairpin with spacer and reverse complement)",PBEF mRNA (real-time RT-PCR) vs non-silencing RNA control,[1],did not manifest a reduction
same,PBEF protein,[1],did not manifest a reduction
same,SMC morphology,[2],maintained an elongated morphology
trichostatin A,HDAC activity in both control and PBEF-overexpressing SMC's,[3]; 40 nM trichostatin A,substantially inhibited
"CC(NC(=O)c1ccccc1/N=C/c1c(O)ccc2ccccc12)c1ccccc1 (centres unmarked) [Sirtinol, sirtinol]",HDAC activity in PBEF-overexpressing SMC's,[3]; 50 μM sirtinol,significantly inhibited
same,HDAC activity in control SMC's,[3]; 50 μM sirtinol,more modest inhibition
"siRNA147: retrovirally expressed hairpin siRNA to PBEF, 19 nt from nucleotide 147: 5'-GGAAGGTGAAATATGAGGA-3' (hairpin with spacer and reverse complement)",PBEF mRNA (real-time RT-PCR) vs non-silencing RNA control,[1],significant decrease
same,PBEF protein,[1],significant suppression
same,SMC morphology,[2],"short, truncated morphology"
same,SMC survival,[2],survived poorly
"siRNA1248: retrovirally expressed hairpin siRNA to PBEF, 19 nt from nucleotide 1248: 5'-AGGGCCGATTATCTTTACA-3' (hairpin with spacer and reverse complement)",PBEF mRNA (real-time RT-PCR) vs non-silencing RNA control,[1],significant decrease
same,PBEF protein,[1],significant suppression
same,h-caldesmon expression (Western blot),[2],reduced expression
same,SMC morphology,[2],"short, truncated morphology"
same,SMC survival,[2],survived poorly
"SIRT1 H363Y: dominant-negative form of SIRT1 (H363Y), retrovirally transduced (protein, UniProt Q96EB6 2-747, looked up, variant H363Y) NAD-dependent protein …: ADEAALALQPGGSPSAAGADREAASSPAGEPLRKRPRRDGPGLERSPGEPGGAAPEREVPAAARGCPGAAAAALWREAEAEAAAAGGEQEAQATAAAGEGDNGPGLQGPSREPPLADNLYDEDDDDEGEEEEEAAAAAIGYRDNLLFGDEIITNGFHSCESDEEDRASHASSSDWTPRPRIGPYTFVQQHLMIGTDPRTILKDLLPETIPPPELDDMTLWQIVINILSEPPKRKKRKDINTIEDAVKLLQECKKIIVLTGAGVSVSCGIPDFRSRDGIYARLAVDFPDLPDPQAMFDIEYFRKDPRPFFKFAKEIYPGQFQPSLCHKFIALSDKEGKLLRNYTQNIDTLEQVAGIQRIIQCYGSFATASCLICKYKVDCEAVRGDIFNQVVPRCPRCPADEPLAIMKPEIVFFGENLPEQFHRAMKYDKDEVDLLIVIGSSLKVRPVALIPSSIPHEVPQILINREPLPHLHFDVELLGDCDVIINELCHRLGGEYAKLCCNPVKLSEITEKPPRTQKELAYLSELPPTPLHVSEDSSSPERTSPPDSSVIVTLLDQAAKSNDDLDVSESKGCMEEKPQEVQTSRNVESIAEQMENPDLKNVGSSTGEKNERTSVAGTVRKCWPNRVAKEQISRRLDGNQYLFLPPNRYIFHGAEVYSDSEDDVLSSSSCGSNSDSGTCQSPSLEEPMEDESEIEEFYNGLEDEPDVPERAGGAGFGTDGDDQEAINEAISVKQEVTDMNYPSNKS",relative increase in senescence,[4]; dominant-negative SIRT1 co-expressed in PBEF-overexpressing SMCs,55±12%
same,relative increase in senescence,[4]; vector-infected SMCs expressing SIRT1 H363Y,15±10%
same,additional population doublings conferred by Nampt,"[5]; SIRT1 H363Y allele co-expressed with Nampt, p=0.003",0.3±0.3 population doublings
"SIRT1: NAD+-dependent deacetylase; tested by retroviral overexpression of human SIRT1 cDNA in SMCs (protein, UniProt Q96EB6 2-747, looked up) NAD-dependent protein …: ADEAALALQPGGSPSAAGADREAASSPAGEPLRKRPRRDGPGLERSPGEPGGAAPEREVPAAARGCPGAAAAALWREAEAEAAAAGGEQEAQATAAAGEGDNGPGLQGPSREPPLADNLYDEDDDDEGEEEEEAAAAAIGYRDNLLFGDEIITNGFHSCESDEEDRASHASSSDWTPRPRIGPYTFVQQHLMIGTDPRTILKDLLPETIPPPELDDMTLWQIVINILSEPPKRKKRKDINTIEDAVKLLQECKKIIVLTGAGVSVSCGIPDFRSRDGIYARLAVDFPDLPDPQAMFDIEYFRKDPRPFFKFAKEIYPGQFQPSLCHKFIALSDKEGKLLRNYTQNIDTLEQVAGIQRIIQCHGSFATASCLICKYKVDCEAVRGDIFNQVVPRCPRCPADEPLAIMKPEIVFFGENLPEQFHRAMKYDKDEVDLLIVIGSSLKVRPVALIPSSIPHEVPQILINREPLPHLHFDVELLGDCDVIINELCHRLGGEYAKLCCNPVKLSEITEKPPRTQKELAYLSELPPTPLHVSEDSSSPERTSPPDSSVIVTLLDQAAKSNDDLDVSESKGCMEEKPQEVQTSRNVESIAEQMENPDLKNVGSSTGEKNERTSVAGTVRKCWPNRVAKEQISRRLDGNQYLFLPPNRYIFHGAEVYSDSEDDVLSSSSCGSNSDSGTCQSPSLEEPMEDESEIEEFYNGLEDEPDVPERAGGAGFGTDGDDQEAINEAISVKQEVTDMNYPSNKS",increase in cumulative population doublings vs vector infected SMCs,[6],1.30±0.93 fold
same,increase in number of population doublings,"[5]; SIRT1-SMCs, clonal longer-lived human SMC line, p<0.05",1.17±0.03 fold
